Consider nine compounds from patent US4465676A, “16α Halogen substituted 3,17β-dihydroxy steroidal estrogens” (priority 1980, dated 1984).

Read-outs that look alike come from different tables or passages of the source.

One data set has as its system estrogen receptors. The conditions noted are these: ability to displace [3H]estradiol from receptor sites; cited from earlier work.
Data set [1] is described as follows: External localization of tracer in an ovariectomized squirrel monkey. Format: in vivo, squirrel monkey (Saimari Sciureus). The procedure: The tracer ^131 I-E2 was synthesized as described in Example 6 with the exception that Na ^131 I was used for the exchange. The subject, a squirrel monkey (Saimari Sciureus), weighing 1.5 kilograms, was ovariectomized 2 weeks before the start of the experiment and an estradiol containing Silastic implant was placed subcutaneously in […] back. The implant was removed 24 hours before the intravenous injection of 200 μCi of the tracer dissolved in saline. […] Within 1 to 2 hours radioactivity could be detected in the suprapubic region, but when the bladder was aspirated and washed, 3.8 μCi of radioactivity was found in the urine.

Data set [2] has as its target T1, estrogen receptor (calf uterine cytosol) (Bos taurus, UniProt P49884).
T1 construct: Fresh calf uteri obtained from a slaughterhouse; from tissue; host or cells: calf uterus, 150,000 x g cytosol from lyophilized powder
T1 sequence (P49884 1-596): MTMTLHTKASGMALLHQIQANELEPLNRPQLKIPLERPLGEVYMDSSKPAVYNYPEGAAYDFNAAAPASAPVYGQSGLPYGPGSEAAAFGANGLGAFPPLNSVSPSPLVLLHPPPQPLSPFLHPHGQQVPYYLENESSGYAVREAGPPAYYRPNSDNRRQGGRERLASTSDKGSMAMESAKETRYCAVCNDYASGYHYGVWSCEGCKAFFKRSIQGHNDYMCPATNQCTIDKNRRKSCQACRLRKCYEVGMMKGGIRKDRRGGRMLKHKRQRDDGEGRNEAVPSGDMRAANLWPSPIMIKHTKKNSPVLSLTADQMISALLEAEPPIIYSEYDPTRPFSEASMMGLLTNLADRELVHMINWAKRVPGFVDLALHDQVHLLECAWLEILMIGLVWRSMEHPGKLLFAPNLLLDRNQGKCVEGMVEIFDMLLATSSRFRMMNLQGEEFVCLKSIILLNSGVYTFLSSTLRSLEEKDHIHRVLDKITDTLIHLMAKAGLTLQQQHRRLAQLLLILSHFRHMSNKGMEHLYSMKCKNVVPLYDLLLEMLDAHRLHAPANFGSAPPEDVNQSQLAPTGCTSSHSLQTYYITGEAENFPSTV
Nature of the data set: Competition for the estrogen receptor in calf uterine cytosol. It counts as binding. The settings on record: for activity at 0.0005 µM: competitor 0.5 nM. On the procedure: Several compounds, at the two indicated concentrations, were allowed to compete with both labeled steroids for sites in calf uterine cytosol. Incubations were overnight at 4° C., and bound and free steroids were separated with dextran-coated charcoal.

Data set [3] deals with estrogen-dependent human breast tumor cell line (MCF-7). Nature of the data set: Induction of growth of MCF-7 cells in vitro. Format: cell-based. The text has this: This difference in potency, can be explained either by differences in the peripheral metabolism of the two compounds or by differences in events that occur after binding to the cytosolic receptor has taken place. At this time we believe the former explanation to be correct because the two estrogens are equipotent in vitro in inducing growth of an estrogen-dependent human breast tumor cell line (MCF-7).

The subject of data set [4] is 21-day-old female rats (uteri). Nature of the data set: Estrogen bioassay, uterine weight in 21-day-old female rats. Format: in vivo. The conditions noted are these: daily s.c. injections for 3 days, uterine weight on fourth day. On the procedure:
Estrogenic potency was assayed in 21-day-old female rats. […] On the fourth day, the uteri were removed, trimmed, blotted, and weighed.

Data set [5] concerns the target T2, calf uterine estrogen receptor (Bos taurus, UniProt P49884).
T2 construct: Fresh calf uteri obtained from a slaughterhouse; from tissue; host or cells: calf uterus, 150,000 x g cytosol from lyophilized powder
T2 sequence (P49884 1-596): T1 sequence (P49884 1-596)
As to the kind of experiment: Saturation and Scatchard analysis of the estrogen receptor from calf uterus. Format: binding. The settings on record: Scatchard analysis, calf uterine cytosol. The procedure:
Fresh calf uteri obtained from a slaughterhouse were brought to the laboratory on ice, immediately trimmed of fat, and cut into small pieces; the pieces were frozen in liquid nitrogen and pulverized. The pulverized frozen tissue was lyophilized, and the desiccated powder was stored under vacuum in sealed vials at -80° C. The uterine powders were usually used within 1 month of pulverization. When needed, the powders were suspended in 0.1M Tris-HCl, pH 7.4/2.5 mM EDTA/5 mM dithiotreithol (TED buffer) at 2.5 mg/ml and homogenized at 0° C. in a Polytron homogenizer with two or three pulses at 15 seconds each. The homogenate was then centrifuged at 150,000×g for 60 minutes and the resulting supernatant (cytosol), containing approximately 1 mg of protein per ml, was used for binding studies on the estrogen receptor.
After the solvent was removed under a stream of N2, 250 μl of cytosol was added and the samples were incubated at 0°-2° C. overnight. The following morning, 250 μl of a 0.5% suspension of dextran-coated charcoal in TED buffer was added to the tubes which then were mixed and centrifuged at 5000×g for 10 minutes. The supernatant was assayed to determine bound radioactivity.
A saturation analysis of the estrogen receptor from calf uterus was conducted. […] Nonspecific binding, specific binding and total binding were determined in parallel incubations containing 0.7 μM DES.
A Scatchard analysis of the estrogen receptor from calf uterus was also conducted.

Data set [6] concerns antisera against bovine serum albumin complexes with E2-17-hemisuccinate, E2-6-carboxymethyloxime and E2-3-carboxymethyl ether. As to the kind of experiment: Radioimmunoassay with antisteroid antisera. Format: binding, rabbits. The procedure:
Antisteroid antisera were produced in rabbits immunized with steroid-bovineserum albumin conjugates.
Varying amounts of E2 dissolved in methanol were added to test tubes and evaporated to dryness. The residues were dissolved in 100 μl of antiserum that had been diluted in 0.1M phosphate, pH 7.0/0.015M sodium azide/0.15M NaCl/0.1% gelatin (PBS buffer). […] Upon completion of the incubation, 100 μl of 0.5% gelatin in PBS buffer was added, followed by 1 ml of PBS buffer containing 2.5 mg of dextran-coated charcoal. The mixture was agitated in a vortex mixer and, after 10 minutes at 4° C., it was centrifuged at 5000×g for 10 minutes at 4° C. Aliquots (0.9 ml) were assayed for radioactivity.
The data also indicate that very sensitive radioimmunoassays could be developed with all three antisera.

Where [7] appears, read: read-out: B/B0 × 10^2, tracer ^3 H-E2 (0.74 nM).
The mark [8] stands for this setting: read-out: B/B0 × 10^2, tracer ^3 H-E2 (0.74 nM), competitor 5.0 nM.
Setting [9] is: read-out: B/B0 × 10^2, tracer ^125 I-E2 (0.22 nM).
The mark [10] stands for this setting: read-out: B/B0 × 10^2, tracer ^125 I-E2 (0.22 nM), competitor 5 nM.

Turning to `C[C@]12CC[C@@H]3c4ccc(O)cc4CC[C@H]3[C@@H]1C[C@H](I)[C@@H]2O` [16β-iodoestra-1,3,5(10)-triene-3-17β-diol], in the data set with estrogen receptors, the relative binding affinity was 0.57.

`C[C@]12CC[C@@H]3c4ccc(O)cc4CC[C@H]3[C@@H]1C[C@@H]([131I])[C@@H]2O` [^131 I-E2]: the “imaging of the uterus” value in data set [1] (Anger Camera) is recorded as “uterus was then imaged”. Besides, the “radioactivity found in the urine” value in data set [1] (bladder aspirated and washed, i.v. 200 μCi) was found to be 3.8 μCi. Also, the “time until radioactivity detected in the suprapubic region” value in data set [1] (i.v. 200 μCi) is 1 to 2 h. For the same compound, the “uptake of the tracer in the liver” value in data set [1] (i.v. 200 μCi, pin-hole collimator scan) is recorded as “could be seen immediately”.

On to `C[C@]12CC[C@H](O)CC1=CC[C@@H]1[C@@H]2CC[C@]2(C)C(=O)CC[C@@H]12` [Dehydroisoandrosterone], for which the activity at 0.0005 µM in data set [2] (setting [7]) is 98%; in data set [2] (setting [9]), 104%. The activity at 0.005 µM in data set [2] (setting [8]) turned out to be 108%; in data set [2] (setting [10]) it was 107%.

In the case of `CC(=O)[C@H]1CC[C@H]2[C@@H]3CCC4=CC(=O)CC[C@]4(C)[C@H]3CC[C@]12C` [Progesterone], the results for the activity at 0.0005 µM in data set [2] (setting [7]) and in data set [2] (setting [9]) were 97% and 98%, respectively. Further, the activity at 0.005 µM in data set [2] (setting [8]) and in data set [2] (setting [10]) was 102% each time.

For the compound `C[C@]12CC[C@@H]3c4ccc(O)cc4C(I)=C[C@H]3[C@@H]1CC[C@@H]2O` [6-iodoestra-1,3,5(10), 6-tetraene-3,17β-diol], in the data set with estrogen receptors, the relative binding affinity is recorded as 0.49.

Take `C[C@]12CC[C@@H]3c4ccc(O)cc4CC[C@H]3[C@@H]1C[C@@H](I)[C@@H]2O` [I-E2, 16α-iodoestra-1,3,5,(10)-triene-3,17β-diol]: the “inducing growth of MCF-7” value in data set [3] is “equipotent”. Besides, the “estrogenic potency in vivo” value in data set [4] is “estrogenic in vivo, albeit not as potent as E2 itself”. Besides, the activity at 0.0005 µM in data set [2] (setting [7]) stood at 69%; in data set [2] (setting [9]), 35%. Moreover, the activity at 0.005 µM in data set [2] (setting [8]) came out at 12%; in data set [2] (setting [10]) it was 2%. The “competing for the estrogen receptor (in words)” value in data set [2] (regardless of which radioactive ligand was used) is “about equipotent”. Further, the binding capacity in data set [5] was 411 fmol/mg of protein. Besides, the Kd in data set [5] (read-out: Ka (association constant) (converted)) is 0.141 nM.

As to `[3H]C1c2cc(O)ccc2[C@H]2CC[C@]3(C)[C@@H](O)CC[C@H]3[C@@H]2C1[3H]` (stereo partly drawn) [^3 H-E2], the “binding of tracer to antisera” value in data set [6] (three antisera, various dilutions) is listed as “bound to all three antisera”.

As for `C[C@]12CC[C@@H]3c4ccc(O)cc4CC[C@H]3[C@@H]1CC[C@@H]2O` [E2, estra-1,3,5(10)-triene-3,17β-diol, reference compound], the “inducing growth of MCF-7” value in data set [3] was “equipotent”. Besides, in data set [6] (anti-E2-6-carboxymethyloxime-albumin, 1 pg of E2), the “tracer displaced from the antibody” value is on record as about 50%.

Take `C[C@]12C[C@H](O)[C@H]3[C@@H](CCC4=CC(=O)CC[C@@]43C)[C@@H]1CC[C@@H]2C(=O)CO` [Corticosterone]: the activity at 0.0005 µM amounted to 103% in data set [2] (tracer ^3 H-E2 (0.74 nM), read-out: B/B0 × 10^2) and 100% in data set [2] (tracer ^125 I-E2 (0.22 nM), read-out: B/B0 × 10^2). The activity at 0.005 µM in data set [2] (tracer ^3 H-E2 (0.74 nM), competitor 5.0 nM, read-out: B/B0 × 10^2) came out at 97%; in data set [2] (tracer ^125 I-E2 (0.22 nM), competitor 5 nM, read-out: B/B0 × 10^2) it was 93%.
